Among the test systems are OVCAR-4; HT-29; NCI-H522; CCRF-CEM; IGROV-1; SW-620; NCI-H226; ACHN; OVCAR-3; SNB-19; SNB-75; TK-10; OVCAR-8; K562; UACC-257; SF-539; HCT-15; RXF 393.
What all share (assay): growth of human tumour cells (NCI), 48 h

The structures appear in SMILES notation.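 Values below derive from 48-hour exposures of cells grown in 96-well plates, with endpoints linearly interpolated between the two concentrations bracketing the appropriate inhibition level. The concentration for 50% growth inhibition is given as GI50.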 Activity calls are given as the source filed them. Rule as the data show it: active = GI50 up to about 1.1 µM and inactive = higher.

For the compound `COc1ccc([C@@]2(O)c3c(ccc(O)c3OC)[C@H]2OC)c(OC)c1`, the GI50 with OVCAR-4 is 67.9 µM (inactive); in the assay on HT-29 it was 37.2 µM (inactive); with NCI-H522, 28.8 µM (inactive); in the assay on CCRF-CEM, 36.6 µM (inactive); in the assay on IGROV-1, > 100 µM (inactive); with SW-620, 46.6 µM (inactive). The GI50 is > 100 µM (inactive) in the assay with NCI-H226; 86.1 µM (inactive) in the assay on ACHN; 68.2 µM (inactive) in the assay with OVCAR-3; > 100 µM (inactive) with SNB-19; 39.6 µM (inactive) in the assay with SNB-75; 27.1 µM (inactive) in the assay with TK-10. Moreover, the GI50 in the assay with OVCAR-8 was 51.5 µM (inactive); in the assay on K562, 36.5 µM (inactive); in the assay with UACC-257 it was > 100 µM (inactive).
For `O=C(NC1C2CC3CC(C2)CC1C3)c1ccncn1` (stereo not drawn), the GI50 with OVCAR-4, with HT-29, in the assay on NCI-H522, with CCRF-CEM, with SF-539 and with IGROV-1 was > 100 µM (inactive) in each case. The GI50 with SW-620, with NCI-H226, in the assay on ACHN, with OVCAR-3, in the assay with SNB-19 and in the assay with SNB-75 was > 100 µM (inactive) in each case. The GI50 in the assay on OVCAR-8 is > 100 µM (inactive); in the assay with HCT-15, above 100 µM; in the assay on K562 it was > 100 µM (inactive); in the assay with UACC-257, > 100 µM (inactive).
With `C[C@@H](CC(O)C1OC1(C)C)[C@@H]1CC[C@]2(C)C3=CCC4C(C)(C)C(O)CC[C@]4(C)C3CCC12C` (stereo partly drawn), the GI50 was 16.7 µM (inactive) in the assay on RXF 393; 20.8 µM (inactive) in the assay on OVCAR-4; 11.4 µM (inactive) in the assay on HT-29; 11.8 µM (inactive) in the assay with NCI-H522; 27.5 µM (inactive) with CCRF-CEM; 17.9 µM (inactive) with SF-539. Besides, the GI50 in the assay with IGROV-1 is 31.3 µM (inactive); in the assay on SW-620, 38.9 µM (inactive); with NCI-H226, 18.5 µM (inactive); in the assay with ACHN it was 14.8 µM (inactive); with OVCAR-3 it was 34.7 µM (inactive); in the assay on SNB-19, 37.6 µM (inactive). Besides, the GI50 in the assay on TK-10 is 20.3 µM (inactive); with OVCAR-8, 26.5 µM (inactive); in the assay on HCT-15, 33.1 µM; with K562, 6.84 µM (inactive); in the assay on UACC-257, 16.3 µM (inactive).
Consider `Cn1c2cccc3nnc4cccc(c4c32)n1C`, for which the GI50 with RXF 393, in the assay on OVCAR-4, in the assay with HT-29, with CCRF-CEM, with SF-539 and in the assay with IGROV-1 was > 100 µM (inactive) throughout. In addition, the GI50 was > 100 µM (inactive) in the assay on SW-620; 45.8 µM (inactive) in the assay on NCI-H226; > 100 µM (inactive) in the assay with ACHN; > 100 µM (inactive) with OVCAR-3; > 100 µM (inactive) in the assay on SNB-19; > 100 µM (inactive) with OVCAR-8. Also, the GI50 with HCT-15 was above 100 µM; in the assay on K562, > 100 µM (inactive); in the assay with UACC-257, > 100 µM (inactive).
For the compound `CCOC(=O)c1cnc2c(ccc3ncccc32)c1NCCCN(CC)CC`, the GI50 in the assay with OVCAR-4 was 30 µM (inactive); with HT-29 it was 39.1 µM (inactive); in the assay on NCI-H522, > 100 µM (inactive); in the assay with CCRF-CEM, 38.4 µM (inactive); with SF-539, > 10 µM (inactive); in the assay on IGROV-1, > 100 µM (inactive). The GI50 in the assay on SW-620 is 41.9 µM (inactive); with NCI-H226, > 100 µM (inactive); in the assay on ACHN, > 100 µM (inactive); in the assay on OVCAR-3, > 100 µM (inactive); in the assay with SNB-19, 50.1 µM (inactive); in the assay on TK-10 it was > 100 µM (inactive). The GI50 was 80.5 µM in the assay with HCT-15, 27.2 µM (inactive) in the assay with K562 and > 100 µM (inactive) in the assay on UACC-257.
`CN(C)CCC(/C=C/c1ccccc1)=N\Nc1ccccc1`: the GI50 is 5.83 µM (inactive) in the assay with RXF 393; 4.32 µM (inactive) with OVCAR-4; 2.97 µM (inactive) in the assay with HT-29; 1.84 µM (inactive) in the assay on NCI-H522; 0.526 µM (active) with CCRF-CEM; 1.82 µM (inactive) with SF-539. Also, the GI50 with IGROV-1 is 2.82 µM (inactive); with SW-620 it was 0.335 µM (active); in the assay on ACHN it was 0.37 µM (active); with OVCAR-3, 2.33 µM (inactive); in the assay with SNB-19, 3.88 µM (inactive); with SNB-75, 3.48 µM (inactive). The GI50 was 1.6 µM (inactive) with TK-10; 10.7 µM (inactive) with OVCAR-8; 0.336 µM with HCT-15; 0.325 µM (active) in the assay with K562; 2.42 µM (inactive) in the assay with UACC-257.
For the compound `COc1ccc(N2C(=O)C(N3C(=O)C=CC3=O)C2C=O)cc1` (stereo not drawn), the GI50 with HT-29, with NCI-H522, with CCRF-CEM, in the assay on SF-539, in the assay on IGROV-1 and in the assay with SW-620 was > 100 µM (inactive) each time. Further, the GI50 with ACHN, in the assay on OVCAR-3, with SNB-19, in the assay on SNB-75, in the assay on TK-10 and in the assay on OVCAR-8 was > 100 µM (inactive) in each case. For the same compound, the GI50 was above 100 µM in the assay with HCT-15, > 100 µM (inactive) in the assay with K562 and > 100 µM (inactive) with UACC-257.
With `CC(=O)Oc1cc(OC(C)=O)c2cc3c(cc2c1OC(C)=O)C(=O)C1(CCCC1)C3=O`, the GI50 was 17.2 µM (inactive) in the assay with RXF 393; 18.6 µM (inactive) with OVCAR-4; 12.2 µM (inactive) with HT-29; 17.2 µM (inactive) in the assay with IGROV-1; 16.3 µM (inactive) in the assay with SW-620; 17.7 µM (inactive) with ACHN. Further, the GI50 was 19.3 µM (inactive) in the assay with OVCAR-3; 14.2 µM (inactive) in the assay with SNB-75; 17.2 µM (inactive) with TK-10; 16.4 µM (inactive) with OVCAR-8; 17.8 µM in the assay with HCT-15; 14.7 µM (inactive) in the assay with K562.
`Cc1ccc(C)c(N2C/C(=N\NC(=O)CC#N)C(c3nc4ccccc4s3)C(=O)C2=O)c1` (stereo not drawn): the GI50 in the assay with RXF 393, with OVCAR-4, in the assay with HT-29, in the assay with NCI-H522, in the assay on CCRF-CEM and with IGROV-1 was > 100 µM (inactive) each time. The GI50 in the assay with SW-620, with NCI-H226, in the assay with ACHN, in the assay on OVCAR-3, in the assay on SNB-19 and with SNB-75 was > 100 µM (inactive) in each case. Besides, the GI50 with TK-10 was > 100 µM (inactive); with OVCAR-8, > 100 µM (inactive); in the assay with HCT-15, above 100 µM; with UACC-257, > 100 µM (inactive).
Consider `COc1cc(C)c2c(c1)CN1CN2Cc2cc(OC)cc(C)c21`, for which the GI50 in the assay with OVCAR-4 is 32.8 µM (inactive); in the assay on HT-29, 74.8 µM (inactive); in the assay on NCI-H522, > 100 µM (inactive); in the assay on CCRF-CEM, 65.6 µM (inactive); in the assay on SF-539 it was > 100 µM (inactive); with IGROV-1 it was 97.1 µM (inactive). Further, the GI50 in the assay with SW-620 is > 100 µM (inactive); in the assay on NCI-H226, 49.5 µM (inactive); in the assay with ACHN, 37.8 µM (inactive); with OVCAR-3 it was 25.5 µM (inactive); with SNB-19, < 0.01 µM (active); in the assay with SNB-75 it was 11.2 µM (inactive). Besides, the figures for the GI50 in the assay with OVCAR-8, with HCT-15 and in the assay with K562 were 85.7 µM (inactive), 34.8 µM and 46.9 µM (inactive), respectively.
For `CCN(CC)CC(=O)N1CCc2c([nH]c3ccccc23)C1c1cccnc1` (stereo not drawn), the GI50 with OVCAR-4, with HT-29, in the assay on NCI-H522, in the assay on CCRF-CEM, with SF-539 and in the assay with IGROV-1 was > 100 µM (inactive) throughout. In addition, the GI50 in the assay with SW-620 was > 100 µM (inactive); with ACHN, > 100 µM (inactive); with OVCAR-3, > 100 µM (inactive); in the assay with SNB-19, > 100 µM (inactive); in the assay on SNB-75 it was 73.6 µM (inactive); in the assay on TK-10, > 100 µM (inactive). In addition, the GI50 in the assay on OVCAR-8 is > 100 µM (inactive); in the assay on HCT-15 it was above 100 µM; in the assay with K562, > 100 µM (inactive); in the assay with UACC-257 it was > 100 µM (inactive).
In the case of `CC/C(C)=C1\CCC(CN2CCOCC2)C1=O` (stereo not drawn), the GI50 was 6.78 µM (inactive) in the assay with RXF 393; 17.6 µM (inactive) in the assay with OVCAR-4; 15.6 µM (inactive) in the assay on HT-29; 7.91 µM (inactive) with CCRF-CEM; 20.2 µM (inactive) in the assay on SF-539; 20.4 µM (inactive) in the assay with IGROV-1. Moreover, the GI50 was 15.1 µM (inactive) in the assay on SW-620; 82.2 µM (inactive) in the assay on NCI-H226; 7.18 µM (inactive) with ACHN; 15 µM (inactive) in the assay with OVCAR-3; 47.9 µM (inactive) in the assay on SNB-19; 25.2 µM (inactive) with SNB-75. The GI50 with TK-10 was 14.5 µM (inactive); with OVCAR-8, 20.7 µM (inactive); in the assay with HCT-15, 13.4 µM; in the assay with K562 it was 7.46 µM (inactive); with UACC-257 it was 17.3 µM (inactive).
On to `COc1ccc(C23c4ccc(OC)cc4CC2(c2ccc([N+](=O)[O-])cc2)Cc2cc(OC)ccc23)cc1` (stereo not drawn), for which the GI50 in the assay on OVCAR-4 is > 25.1 µM (inactive); with HT-29, > 23.3 µM (inactive); in the assay with NCI-H522, > 59.8 µM (inactive); with CCRF-CEM, > 40.9 µM (inactive); in the assay on SF-539, > 14.2 µM (inactive); in the assay on IGROV-1 it was > 21.5 µM (inactive). Besides, the GI50 is > 100 µM (inactive) in the assay with SW-620; > 57.1 µM (inactive) in the assay on NCI-H226; > 39.4 µM (inactive) with ACHN; > 39.2 µM (inactive) with OVCAR-3; > 71.4 µM (inactive) in the assay with SNB-19; > 83.6 µM (inactive) in the assay on SNB-75. Further, the GI50 in the assay with TK-10 was > 92.5 µM (inactive); in the assay on OVCAR-8 it was > 36.7 µM (inactive); with HCT-15, above 93.5 µM; in the assay on K562 it was > 37.6 µM (inactive); in the assay with UACC-257, > 51.3 µM (inactive).
